Experimental findings from PubChem BioAssay AID248 (DTP/NCI, 2004) are described below.

The experiment relates to L1210 leukemia ip in BDF1 mice, survival T/C. In words: NCI In Vivo Anticancer Drug Screen. Data for tumor model L1210 Leukemia (intraperitoneal) in B6D2F1 (BDF1) mice. Particulars: endpoint: mean survival time, higher = longer survival. The gist of the method:
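Survival endpoint. Drug-treated group vs vehicle group, expressed as T divided by C. Tumor passaged by transplantation.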

[1] abbreviates: dose: 100.0 mg/kg/injection, schedule: Q01DX009 (ip), vehicle: Klucel (hydroxypropylcellulose) (HPC).
Where [2] appears, read: dose: 100.0 mg/kg/injection, schedule: Q04DX003 (ip), vehicle: Klucel (hydroxypropylcellulose) (HPC).
[3] abbreviates: dose: 200.0 mg/kg/injection, schedule: Q01DX009 (ip), vehicle: Klucel (hydroxypropylcellulose) (HPC).
Setting [4] is: dose: 200.0 mg/kg/injection, schedule: Q04DX003 (ip), vehicle: Klucel (hydroxypropylcellulose) (HPC).
Setting [5] is: dose: 400.0 mg/kg/injection, schedule: Q01DX009 (ip), vehicle: Klucel (hydroxypropylcellulose) (HPC).
[6] abbreviates: dose: 400.0 mg/kg/injection, schedule: Q04DX003 (ip), vehicle: Klucel (hydroxypropylcellulose) (HPC).
The mark [7] stands for this setting: dose: 100.0 mg/kg/injection, schedule: Q04DX002 (ip), vehicle: Klucel (hydroxypropylcellulose) (HPC).
The mark [8] stands for this setting: dose: 200.0 mg/kg/injection, schedule: Q04DX002 (ip), vehicle: Klucel (hydroxypropylcellulose) (HPC).
[9] abbreviates: dose: 400.0 mg/kg/injection, schedule: Q04DX002 (ip), vehicle: Klucel (hydroxypropylcellulose) (HPC).
Where [10] appears, read: dose: 50.0 mg/kg/injection, schedule: Q01DX001 (ip), vehicle: carboxymethylcellulose (CMC).
Setting [11] is: dose: 100.0 mg/kg/injection, schedule: Q01DX001 (ip), vehicle: carboxymethylcellulose (CMC).
The mark [12] stands for this setting: dose: 200.0 mg/kg/injection, schedule: Q01DX001 (ip), vehicle: carboxymethylcellulose (CMC).
The mark [13] stands for this setting: dose: 50.0 mg/kg/injection, schedule: Q01DX009 (ip), vehicle: saline.
The mark [14] stands for this setting: dose: 25.0 mg/kg/injection, schedule: Q04DX003 (ip), vehicle: other.
Where [15] appears, read: dose: 50.0 mg/kg/injection, schedule: Q04DX003 (ip), vehicle: other.
[16] abbreviates: dose: 100.0 mg/kg/injection, schedule: Q04DX003 (ip), vehicle: other.

Each structure is given as a SMILES string. Where “and” joins values, the source holds several entries; their conditions need not be identical. Equal values may be shown once. Inconclusive results and toxic doses are left out.

Take `O=C1/C(=C\c2ccccn2)CCCc2ccccc21`: the T/C runs as follows: (dose: 25.0 mg/kg/injection, schedule: Q01DX009 (ip), vehicle: Klucel (hydroxypropylcellulose) (HPC)) 102 % of control; (dose: 50.0 mg/kg/injection, schedule: Q01DX009 (ip), vehicle: Klucel (hydroxypropylcellulose) (HPC)) 98 % of control; (dose: 50.0 mg/kg/injection, schedule: Q04DX003 (ip), vehicle: Klucel (hydroxypropylcellulose) (HPC)) 98 % of control; under setting [1], 101 % of control; under setting [2], 98 % of control; (dose: 100.0 mg/kg/injection, schedule: Q04DX003 (ip), vehicle: carboxymethylcellulose (CMC)) 96 % of control. Moreover, the T/C runs as follows: under setting [3], 100 % of control; under setting [4], 102 % of control; (dose: 200.0 mg/kg/injection, schedule: Q04DX003 (ip), vehicle: carboxymethylcellulose (CMC)) 100 % of control; under setting [5], 102 % of control; under setting [6], 93 % of control; (dose: 400.0 mg/kg/injection, schedule: Q04DX003 (ip), vehicle: carboxymethylcellulose (CMC)) 156 % of control. For the same molecule, the T/C (dose: 800.0 mg/kg/injection, schedule: Q04DX003 (ip), vehicle: Klucel (hydroxypropylcellulose) (HPC)) was 104 % of control.

For `O=[N+]([O-])c1ccc(/C=N/O)o1`, the T/C reads like this: (dose: 10.0 mg/kg/injection, schedule: Q04DX002 (ip), vehicle: Klucel (hydroxypropylcellulose) (HPC)) 102 % of control; (dose: 20.0 mg/kg/injection, schedule: Q04DX002 (ip), vehicle: Klucel (hydroxypropylcellulose) (HPC)) 117 % of control; (dose: 40.0 mg/kg/injection, schedule: Q04DX002 (ip), vehicle: Klucel (hydroxypropylcellulose) (HPC)) 104 % of control; (dose: 50.0 mg/kg/injection, schedule: Q01DX001 (ip), vehicle: saline) 111 % of control.

As for `Cc1cccc(NC(=O)COc2ccc(C)cc2C)c1`, the T/C is 103 % of control under setting [7], 92 % of control under setting [8] and 95 % of control under setting [9].

With `Cc1cccc(C2=CCCCC2)c1`, the T/C under setting [10] was 96 % of control, the T/C under setting [11] is 102 % of control and the T/C under setting [12] is 96 % of control.

Take `Cc1c(O)ccc2c1OCC2=O`: the T/C is 91 % of control (dose: 100.0 mg/kg/injection, schedule: Q01DX001 (ip), vehicle: Klucel (hydroxypropylcellulose) (HPC)); 104 % of control under setting [2]; 94 % of control (dose: 200.0 mg/kg/injection, schedule: Q01DX001 (ip), vehicle: Klucel (hydroxypropylcellulose) (HPC)); 98 % of control under setting [4]; 98 % of control (dose: 400.0 mg/kg/injection, schedule: Q01DX001 (ip), vehicle: Klucel (hydroxypropylcellulose) (HPC)); 93 % of control under setting [6].

With `CCN(CC)C(=O)C1CCCCC1C` (stereo not given), the T/C was 111 % of control (dose: 100.0 mg/kg/injection, schedule: Q04DX002 (ip), vehicle: saline) and 105 % of control (dose: 200.0 mg/kg/injection, schedule: Q04DX002 (ip), vehicle: saline).

As to `COc1ccc(Nc2ccnc3cc(Cl)ccc23)cc1CN(CCCl)C(C)CCl` (stereo not given), the T/C was 113 % of control (dose: 25.0 mg/kg/injection, schedule: Q01DX001 (ip), vehicle: carboxymethylcellulose (CMC)); 107 % of control under setting [10]; 103 % of control under setting [11].

As for `C/C=C/C(=O)OCCN(CC)CC`, the T/C by setting is: under setting [13], 103 % of control; (dose: 100.0 mg/kg/injection, schedule: Q01DX009 (ip), vehicle: saline) 103 % of control; (dose: 200.0 mg/kg/injection, schedule: Q01DX009 (ip), vehicle: saline) 100 % of control.

On to `CCOC(=O)c1cnc(SC)nc1NCCO`, for which the T/C is, setting by setting: under setting [2], 97 % of control; under setting [4], 95 % of control; under setting [6], 97 % of control.

`Nc1ccccc1SC1CC(=O)N(c2ccc(I)cc2)C1=O` (stereo not given): the T/C is 88 % of control under setting [14]; 91 % of control under setting [15]; 94 % of control (dose: 100.0 mg/kg/injection, schedule: Q01DX009 (ip), vehicle: other); 93 % of control under setting [16]; 102 % of control (dose: 200.0 mg/kg/injection, schedule: Q01DX009 (ip), vehicle: other); 88 % of control (dose: 200.0 mg/kg/injection, schedule: Q04DX003 (ip), vehicle: saline). Moreover, the T/C is 93 % of control (dose: 400.0 mg/kg/injection, schedule: Q01DX009 (ip), vehicle: other) and 86 % of control (dose: 400.0 mg/kg/injection, schedule: Q04DX003 (ip), vehicle: saline).

Consider `Brc1ccc(N=Nc2ccccc2)cc1`, for which the T/C under setting [2] was 103 % of control, the T/C under setting [4] was 97 % of control and the T/C under setting [6] was 103 % of control.

For `O=C(CCl)COP(=O)(O)O`, the T/C is, setting by setting: (dose: 6.25 mg/kg/injection, schedule: Q01DX009 (ip), vehicle: other) 102 % of control; (dose: 12.5 mg/kg/injection, schedule: Q01DX001 (ip), vehicle: other) 102 % of control; (dose: 12.5 mg/kg/injection, schedule: Q01DX009 (ip), vehicle: other) 91 % of control; (dose: 12.5 mg/kg/injection, schedule: Q04DX003 (ip), vehicle: other) 91 % of control; (dose: 25.0 mg/kg/injection, schedule: Q01DX001 (ip), vehicle: other) 91 % of control; (dose: 25.0 mg/kg/injection, schedule: Q01DX009 (ip), vehicle: other) 101 % of control. The T/C by setting is: under setting [14], 88 % of control; (dose: 50.0 mg/kg/injection, schedule: Q01DX001 (ip), vehicle: other) 96 % of control; (dose: 50.0 mg/kg/injection, schedule: Q01DX009 (ip), vehicle: other) 114 % of control; under setting [15], 93 % of control; (dose: 100.0 mg/kg/injection, schedule: Q01DX001 (ip), vehicle: other) 89 % of control; under setting [16], 106 % of control.

Regarding `CCOC(=O)c1ccc(NP(=S)(OCC)OCC)cc1`, the T/C runs as follows: (dose: 50.0 mg/kg/injection, schedule: Q01DX009 (ip), vehicle: saline with Tween-80) 94 % of control; (dose: 100.0 mg/kg/injection, schedule: Q01DX009 (ip), vehicle: saline with Tween-80) 94 % of control; (dose: 200.0 mg/kg/injection, schedule: Q01DX009 (ip), vehicle: saline with Tween-80) 96 % of control.

Regarding `O=C1NC(CCCl)C(=O)NC1CCCl` (stereo not given), the T/C by setting is: under setting [10], 107 % of control; under setting [11], 101 % of control; under setting [12], 91 % of control.

`COc1ccccc1C(CC(=O)c1ccccc1)Sc1ccccc1N` (stereo not given): the T/C (dose: 100.0 mg/kg/injection, schedule: Q01DX005 (ip), vehicle: Klucel (hydroxypropylcellulose) (HPC)) was 118 % of control and 89 % of control; the T/C under setting [1] was 93 % of control; the T/C (dose: 130.0 mg/kg/injection, schedule: Q01DX005 (ip), vehicle: Klucel (hydroxypropylcellulose) (HPC)) is 97 % of control; the T/C (dose: 200.0 mg/kg/injection, schedule: Q01DX005 (ip), vehicle: Klucel (hydroxypropylcellulose) (HPC)) is 115 % of control and 90 % of control; the T/C under setting [3] was 93 % of control; the T/C (dose: 300.0 mg/kg/injection, schedule: Q01DX005 (ip), vehicle: Klucel (hydroxypropylcellulose) (HPC)) was 103 % of control. For the same molecule, the T/C is, setting by setting: (dose: 400.0 mg/kg/injection, schedule: Q01DX005 (ip), vehicle: Klucel (hydroxypropylcellulose) (HPC)) 96 % of control and 87 % of control; under setting [5], 86 % of control.

As to `OC(CN1CCCCC1)c1cccs1` (stereo not given), the T/C was 94 % of control (dose: 6.25 mg/kg/injection, schedule: Q04DX003 (ip), vehicle: saline with Tween-80); 97 % of control (dose: 12.5 mg/kg/injection, schedule: Q04DX003 (ip), vehicle: saline with Tween-80); 94 % of control (dose: 25.0 mg/kg/injection, schedule: Q04DX003 (ip), vehicle: saline with Tween-80).

For the molecule `O=S(=O)(CCS(=O)(=O)c1ccccc1)c1ccccc1`, the T/C under setting [13] was 94 % of control; the T/C under setting [7] is 92 % of control; the T/C (dose: 150.0 mg/kg/injection, schedule: Q01DX009 (ip), vehicle: saline) is 97 % of control; the T/C under setting [8] was 92 % of control; the T/C under setting [9] is 88 % of control.
